Usually pEC50 stands for the negative decadic logarithm of the EC50, by convention in mol/L. In general, pIC50 refers to −log10 of the IC50, conventionally taken in molar units.

pEC50, pIC50: −log10 of the molar value.

The test system of one assay is Ramos cells. Nature of the assay: Cytotoxicity in Ramos cells. It counts as cell-based. As to conditions: Homo sapiens, read-out: Ramos Cell EC50. Here is the method:
(§1) Compounds described in above Examples were tested for activity against F1F0-ATPase by measuring the ability of the compounds to inhibit ATP synthesis. In addition, the compounds were assessed for cytotoxicity in Ramos cells. Inhibition of F1F0-ATPase activity in synthesizing ATP and cytotoxicity in Ramos cells were measured according to the procedures described in K. M. Johnson et al. Chemistry & Biology 2005, 12, 485-496.

The target in the next assay is T1, F1F0-ATPase (Bos taurus, UniProt P13621).
T1 construct: from tissue
Nature of the assay: Inhibition of F1F0-ATPase activity in synthesizing ATP. In kind it is biochemical. Particulars: inhibition of ATP synthesis; read-out: ATP Syn IC50. Here is the method: as §1

As for `CC(C)(C)CC(=O)/N=C(\Nc1cc(-c2ccc(F)cc2)[nH]n1)NC(C)(C)C` [Compound 1, (Z)—N-((tert-Butylamino)((5-(4-fluorophenyl)-1H-pyrazol-3-yl)amino)methylene)-3,3-dimethylbutanamide], in the assay with Ramos cells, the pEC50 is 4.80 to 5.30. The negative-log IC50 (pIC50) on F1F0-ATPase was more than 5.30.

Turning to `O=C(/N=C(/Nc1cccc(Cl)c1)Nc1ccc2cn[nH]c2c1)C1CCCCC1` [Compound 2, (E)-N-(((1H-Indazol-6-yl)amino)((3-chlorophenyl)amino)methylene)cyclohexanecarboxamide], the pEC50 in the assay with Ramos cells was 4.80 to 5.30. The pIC50 on F1F0-ATPase is 4.80 to 5.30.

For the compound `O=C(Cc1ccc(Cl)cc1)/N=C(/Nc1cc(F)cc(Cl)c1)Nc1ccc2cn[nH]c2c1` [Compound 3, N-(((1H-Indazol-6-yl)amino)((3-chloro-5-fluorophenyl)amino)methylene)-2-(4-chlorophenyl)acetamide], the negative logarithm of the EC50 (pEC50) with Ramos cells was 4.80 to 5.30. The pIC50 at F1F0-ATPase was more than 5.30.

The record behind these values is patent US9580391B2, “Saturated acyl guanidine for inhibition of F1F0-ATPase” (Lycera Corporation, priority 2012, dated 2017).
